The record followed here is patent publication US10093650B2, “Tetrazolone-substituted dihydropyridinone MGAT2 inhibitors” (BRISTOL-MYERS SQUIBB COMPANY, priority 2014, dated 2018).

The target of this assay is human MGAT-2 (Homo sapiens (Human), UniProt Q3SYC2). Briefly: MGAT LCMS Assay (human MGAT2). The assay is classed as biochemical. The conditions noted are these: human MGAT-2 membranes expressed in Sf9 cells; 100 μM 2-oleoylglycerol, 15 μM oleoyl-coenzyme A; LC/MS readout; read-out: h-MGAT LCMS IC50. The protocol: The MGAT enzyme reactions were performed in Corning FALCON® 96-well polypropylene plates, in a total volume of 60 μL of 50 mM potassium phosphate buffer pH 7.4, containing a final concentration of 100 μM 2-oleoylglycerol, 15 μM oleoyl-coenzyme A and […] human or mouse MGAT-2 or […] rat recombinant MGAT-2 membranes expressed in Sf9 cells. Assay plates were run through a fully automated robotics system and shaken for 5 seconds every minute for a total 10 minutes. The reactions were then quenched with 120 μL of ice cold methanol containing 1 μg/mL 1,2-distearoyl-rac-glycerol as the internal standard. Plates were shaken for 2 minutes and spun down to remove protein precipitation. After the spin, samples were transferred to LC/MS compatible PCR plates. For LC/MS analysis, a ThermoFisher Surveyor pump, utilizing a Waters SYMMETRY® C8, 50×2.1 mm column, was used for the chromatography of enzyme products. The buffer system consists of 0.1% formic acid in water with a mobile phase consisting 0.1% formic acid in methanol. The shallow gradient is 90-100% mobile phase in 0.2 min with a total run time of 2.3 min. The first 0.5 minutes of each injection was diverted to waste to eliminate the presence of Phosphate buffer in the enzymatic reaction. The column was run at 0.6 mL/min and a temperature of 65° C. Mass spectrometry analysis of the samples was performed on a ThermoFisher Quantum Triple quad utilizing APCI (+) as the mode of ionization. Data was acquired in Single Ion Monitoring (SIM) mode analyzing Diolein=m/z 603.6 (PRODUCT) and 1,2-distearoyl-rac-glycerol (IS)=m/z 607.6. The ratio of Diolein to internal standard (Peak Area Ratio) is utilized to calculate IC50 values.
Chain of human MGAT-2 (Q3SYC2 whole entry): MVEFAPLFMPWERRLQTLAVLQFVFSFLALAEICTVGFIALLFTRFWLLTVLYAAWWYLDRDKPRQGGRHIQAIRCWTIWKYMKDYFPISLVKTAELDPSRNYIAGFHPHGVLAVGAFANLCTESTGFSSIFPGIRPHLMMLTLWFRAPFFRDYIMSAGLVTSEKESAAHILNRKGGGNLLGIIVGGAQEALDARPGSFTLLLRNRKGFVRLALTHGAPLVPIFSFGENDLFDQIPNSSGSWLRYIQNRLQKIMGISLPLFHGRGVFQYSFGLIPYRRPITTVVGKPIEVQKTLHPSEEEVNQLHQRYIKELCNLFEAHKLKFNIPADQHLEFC
The exemplified Examples disclosed below were tested in the MGAT2 in vitro assays described above and were found having MGAT2 inhibitory activity. Table 1 below lists human MGAT2 IC50 values measured for the following examples.

On to `Cc1ccc(C2=C(n3nn[nH]c3=O)C(=O)N[C@@](c3ccc(OCCCC(F)(F)F)cc3)(C(F)(F)F)C2)cc1` [Example 1, (S)-3-(5-Oxo-4,5-dihydro-1H-tetrazol-1-yl)-4-(p-tolyl)-6-(4-(4,4,4-trifluorobutoxy)phenyl)-6-(trifluoromethyl)-5,6-dihydropyridin-2(1H)-one], for which the IC50 is 27 nM.
For the molecule `Cc1ccc(C2=C(n3nn[nH]c3=O)C(=O)N[C@@](c3ccc(OCCCCCC(F)(F)F)cc3)(C(F)(F)F)C2)cc1` [Example 2], the IC50 is 5 nM.
`COc1ccc(C2=C(n3nn[nH]c3=O)C(=O)N[C@@](c3ccc(OCCCC(F)(F)F)cc3)(C(F)(F)F)C2)cc1` [Example 3]: the IC50 amounted to 340 nM.
For the molecule `O=C1N[C@@](c2ccc(OCCCCCC(F)(F)F)cc2)(C(F)(F)F)CC(c2ccc(OC(F)F)cc2)=C1n1nn[nH]c1=O` [Example 4], the IC50 stood at 17 nM.
In the case of `COc1ccc(C2=C(n3nn[nH]c3=O)C(=O)N[C@@](c3ccc(OCCCCCC(F)(F)F)cc3)(C(F)(F)F)C2)cc1` [Example 5], the IC50 worked out at 71 nM.
Take `CC(C)n1ccc(C2=C(n3nn[nH]c3=O)C(=O)N[C@@](c3ccc(OCCCC(F)(F)F)cc3F)(C(F)(F)F)C2)n1` [Example 6]: the IC50 was determined as 137 nM.
For `O=C1N[C@@](c2ccc(OCCCC(F)(F)F)cc2F)(C(F)(F)F)CC(c2ccn(C3CC3)n2)=C1n1nn[nH]c1=O` [Example 7] the value was 173 nM; for `O=C1N[C@@](c2ccc(OCCCC(F)(F)F)cc2F)(C(F)(F)F)CC(c2ccn(C3CCC3)n2)=C1n1nn[nH]c1=O` [Example 8], 30 nM; for `CCn1ccc(C2=C(n3nn[nH]c3=O)C(=O)N[C@@](c3ccc(OCCCC(F)(F)F)cc3F)(C(F)(F)F)C2)n1` [Example 9], 108 nM.
Regarding `CC(C)n1ccc(C2=C(n3nn[nH]c3=O)C(=O)N[C@@](c3ccc(CCCCC(F)(F)F)cc3F)(C(F)(F)F)C2)n1` [Example 10], the IC50 was determined as 36 nM.
As to `O=C1N[C@@](c2ccc(CCCCC(F)(F)F)cc2F)(C(F)(F)F)CC(c2ccn(CC3CC3)n2)=C1n1nn[nH]c1=O` [Example 11], the IC50 stood at 9 nM.
For `CC(C)Cn1ccc(C2=C(n3nn[nH]c3=O)C(=O)N[C@@](c3ccc(CCCCC(F)(F)F)cc3F)(C(F)(F)F)C2)n1` [Example 12] the value was 34 nM.
`CCn1ccc(C2=C(n3nn[nH]c3=O)C(=O)N[C@@](c3ccc(CCCCC(F)(F)F)cc3F)(C(F)(F)F)C2)n1` [Example 13]: the IC50 is 84 nM.
Turning to `O=C1N[C@@](c2ccc(OCCCC(F)(F)F)cc2F)(C(F)(F)F)CC(c2ccn(CC3CC3)n2)=C1n1nn[nH]c1=O` [Example 14], the IC50 was found to be 5 nM.
For `CC(C)Cn1ccc(C2=C(n3nn[nH]c3=O)C(=O)N[C@@](c3ccc(OCCCC(F)(F)F)cc3F)(C(F)(F)F)C2)n1` [Example 15] the value was 145 nM; for `O=C1N[C@@](c2cnn(CCCCCCC(F)(F)F)c2)(C(F)(F)F)CC(c2ccc3c(c2)CCCC3)=C1n1nn[nH]c1=O` [Example 17], 5 nM.
With `CC(=O)c1ccc(C2=C(n3nn[nH]c3=O)C(=O)N[C@@](c3ccc(OCCCC(F)(F)F)cc3)(C(F)(F)F)C2)s1` [Example 18] the figure was 8 nM.
Take `CC(O)c1ccc(C2=C(n3nn[nH]c3=O)C(=O)N[C@@](c3ccc(OCCCC(F)(F)F)cc3)(C(F)(F)F)C2)s1` (stereo partly shown) [Example 19]: the IC50 is 10 nM.
With `O=C1N[C@@](c2ccc(CCCCC(F)(F)F)cc2)(C(F)(F)F)CC(c2ccn(CC3CC3)n2)=C1n1nn[nH]c1=O` [Example 20] the figure was 3 nM; with `O=C1N[C@@](c2ccc(OCCCC(F)(F)F)cc2F)(C(F)(F)F)CC(c2ccc(C(F)F)cc2)=C1n1nn[nH]c1=O` [Example 21], 10 nM; with `CCc1ccc(C2=C(n3nn[nH]c3=O)C(=O)N[C@@](c3ccc(OCCCC(F)(F)F)cc3)(C(F)(F)F)C2)s1` [Example 23], 60 nM.
With `CCc1ccc(C2=C(n3nn[nH]c3=O)C(=O)N[C@H](c3ccc(OCCCC(F)(F)F)cc3Cl)C2)s1` [Example 24] the figure was 36 nM.

One may read the IC50 as the concentration at which inhibition is half-maximal.
